{
  "source": "ChEMBL document CHEMBL4152208",
  "about": "“Synthesis and structure-activity relationships of quinolinone and quinoline-based P2X7 receptor antagonists and their anti-sphere formation activities in glioblastoma cells” (Eur J Med Chem, 2018)",
  "key": {"[1]": {"experiment": "Kinetic solubility of the compound in PAMPA buffer at 25 uM by nepheolometry method", "assay_type": "physicochemical"}, "[2]": {"experiment": "Inhibition of neurosphere formation in human TS15-88 cells assessed as decrease in sphere size at 50 uM after 5 days by microscopic analysis relative to control", "assay_type": "functional", "conditions": "120 h"}, "[3]": {"experiment": "Metabolic stability in mouse liver microsomes assessed as parent compound remaining at 1 uM up to 30 mins in presence of NADPH by LC-MS/MS analysis", "assay_type": "ADME, microsome", "conditions": "read-out: Stability"}, "[4]": {"experiment": "Cytotoxicity against HEK293 cells expressing human P2X7 receptor assessed as cell survival at 10 uM by MTT assay relative to control", "assay_type": "cell-based", "conditions": "read-out: Survival"}, "[5]": {"experiment": "Metabolic stability in rat liver microsomes assessed as parent compound remaining at 1 uM up to 30 mins in presence of NADPH by LC-MS/MS analysis", "assay_type": "ADME, microsome", "conditions": "read-out: Stability"}, "[6]": {"target": "T1, P2X purinoceptor 7 (Homo sapiens) (UniProt Q99572)", "T1 sequence (whole entry)": "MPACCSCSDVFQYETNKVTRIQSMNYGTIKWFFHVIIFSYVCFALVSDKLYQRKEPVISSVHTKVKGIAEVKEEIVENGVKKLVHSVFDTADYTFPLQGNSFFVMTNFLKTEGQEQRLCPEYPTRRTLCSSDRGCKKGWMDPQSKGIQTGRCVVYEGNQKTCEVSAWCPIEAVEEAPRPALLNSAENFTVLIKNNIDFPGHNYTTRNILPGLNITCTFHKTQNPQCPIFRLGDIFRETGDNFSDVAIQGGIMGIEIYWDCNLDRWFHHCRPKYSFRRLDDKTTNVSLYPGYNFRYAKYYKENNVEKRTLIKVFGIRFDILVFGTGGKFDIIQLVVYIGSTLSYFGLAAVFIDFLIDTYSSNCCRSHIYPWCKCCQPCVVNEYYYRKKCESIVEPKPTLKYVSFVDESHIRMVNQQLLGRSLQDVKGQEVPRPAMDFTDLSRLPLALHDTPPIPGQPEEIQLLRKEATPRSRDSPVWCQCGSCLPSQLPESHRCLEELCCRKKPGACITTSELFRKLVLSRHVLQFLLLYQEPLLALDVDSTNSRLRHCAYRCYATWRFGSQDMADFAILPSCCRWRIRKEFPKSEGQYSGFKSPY", "experiment": "Antagonist activity at human P2X7 receptor expressed in HEK293 cells assessed as inhibition of BzATP-induced EtBr uptake at 1 uM after 2 hrs by fluorescence assay relative to control", "assay_type": "cell-based"}, "[7]": {"species": "Homo sapiens", "experiment": "Antiproliferative activity against human TS15-88 cells at 50 uM after 72 hrs by MTS assay", "assay_type": "functional, cell-based"}, "[8]": {"experiment": "Kinetic solubility of the compound in PAMPA buffer at 12.5 uM by nepheolometry method", "assay_type": "physicochemical"}, "[9]": {"target": "T1, P2X purinoceptor 7 (Homo sapiens)", "experiment": "Antagonist activity at human P2X7 receptor expressed in HEK293 cells assessed as inhibition of BzATP-induced EtBr uptake at 10 uM after 2 hrs by fluorescence assay relative to control", "assay_type": "cell-based"}, "[10]": {"target": "T2, P2X purinoceptor 7 (Homo sapiens, UniProt Q99572)", "T2 sequence (Q99572 whole entry)": "T1 sequence (whole entry)", "experiment": "Antagonist activity at P2X7 in LPS/IFN gamma differentiated human THP-1 cells assessed as inhibition of BzATP-induced IL-1beta release preincubated for 30 mins followed by BzATP stimulation for 30 mins by ELISA", "assay_type": "cell-based"}, "[11]": {"experiment": "Kinetic solubility of the compound in PAMPA buffer at 50 uM by nepheolometry method", "assay_type": "physicochemical"}, "[12]": {"species": "Homo sapiens", "experiment": "Antiproliferative activity against human TS15-88 cells at 50 uM after 24 hrs by MTS assay", "assay_type": "functional, cell-based"}, "[13]": {"experiment": "Effective permeability of the compound at 50 uM after 4 hrs by BBB-PAMPA method", "assay_type": "ADME", "conditions": "read-out: Peff"}, "[14]": {"target": "T2, P2X purinoceptor 7", "experiment": "Antagonist activity at human P2X7 receptor expressed in HEK293 cells assessed as inhibition of BzATP-induced EtBr uptake after 2 hrs by fluorescence assay relative to control", "assay_type": "cell-based"}, "[15]": {"experiment": "Metabolic stability in human liver microsomes assessed as parent compound remaining at 1 uM up to 30 mins in presence of NADPH by LC-MS/MS analysis", "assay_type": "ADME, microsome", "conditions": "read-out: Stability"}, "[16]": {"target": "T1, P2X purinoceptor 7 (Homo sapiens)", "experiment": "Antagonist activity at P2X7 in LPS/IFN gamma differentiated human THP-1 cells assessed as inhibition of BzATP-induced IL-1beta release at 1 uM preincubated for 30 mins followed by BzATP stimulation for 30 mins by ELISA", "assay_type": "cell-based"}, "[17]": {"target": "T1, P2X purinoceptor 7 (Homo sapiens)", "experiment": "Antagonist activity at P2X7 in LPS/IFN gamma differentiated human THP-1 cells assessed as inhibition of BzATP-induced IL-1beta release at 10 uM preincubated for 30 mins followed by BzATP stimulation for 30 mins by ELISA", "assay_type": "cell-based"}, "[18]": {"target": "T2, P2X purinoceptor 7", "experiment": "Antagonist activity at human P2X7 receptor in expressed in HEK293 cells assessed as inhibition of BzATP-induced EtBr uptake", "assay_type": "cell-based"}},
  "note": "pIC50: −log10 of the molar value. Active and inactive are the calls of the source. The rule behind the calls is not given here.",
  "data": [
    {"smiles": "O=C(CC12CC3CC(CC(C3)C1)C2)Nc1cccc2nc(-c3ccc(CO)cc3)ccc12", "values": [
      {"measurement": "Kinetic_solubility", "setting": "[1]", "result": "Soluble"},
      {"measurement": "inhibition at 50 µM", "setting": "[2]", "result": "> 50", "unit": "%"},
      {"measurement": "remaining at 0.5 h, 1 µM", "setting": "[3]", "result": 17, "unit": "%"},
      {"measurement": "viability at 10 µM", "setting": "[4]", "result": 95, "unit": "%"},
      {"measurement": "remaining at 0.5 h, 1 µM", "setting": "[5]", "result": 11.2, "unit": "%"},
      {"measurement": "inhibition", "setting": "[6]", "result": 95, "unit": "%"},
      {"measurement": "Activity", "setting": "[7]", "result": "Active"},
      {"measurement": "Kinetic_solubility", "setting": "[8]", "result": "Soluble"},
      {"measurement": "inhibition", "setting": "[9]", "result": 98, "unit": "%"},
      {"measurement": "pIC50", "setting": "[10]", "result": 7.92},
      {"measurement": "Kinetic_solubility", "setting": "[11]", "result": "Soluble"},
      {"measurement": "Activity", "setting": "[12]", "result": "Active"},
      {"measurement": "Papp at 4 h, 50 µM", "setting": "[13]", "result": 17.7, "unit": "×10⁻⁶ cm/s"},
      {"measurement": "pIC50", "setting": "[14]", "result": 8.52},
      {"measurement": "remaining at 0.5 h, 1 µM", "setting": "[15]", "result": 17.9, "unit": "%"}
    ]},
    {"smiles": "COC(=O)c1cc2c(NC(=O)C34CC5CC(CC(C5)C3)C4)cccc2n(Cc2ccc(F)cc2)c1=O", "values": [
      {"measurement": "inhibition", "setting": "[6]", "result": 66, "unit": "%"},
      {"measurement": "inhibition", "setting": "[16]", "result": 12, "unit": "%"},
      {"measurement": "inhibition", "setting": "[9]", "result": 86, "unit": "%"},
      {"measurement": "inhibition", "setting": "[17]", "result": 35, "unit": "%"},
      {"measurement": "pIC50", "setting": "[14]", "result": 6.05}
    ]},
    {"smiles": "COc1ccc(CCN(C)CCCC(C#N)(c2ccc(OC)c(OC)c2)C(C)C)cc1OC", "note": "(stereo not drawn)", "values": [
      {"measurement": "remaining at 0.5 h, 1 µM", "setting": "[15]", "result": 10.5, "unit": "%"}
    ]},
    {"smiles": "CCCOC(=O)c1cc2c(NC(=O)C34CC5CC(CC(C5)C3)C4)cccc2n(Cc2ccc(OC)cc2)c1=O", "values": [
      {"measurement": "inhibition", "setting": "[6]", "result": 82, "unit": "%"},
      {"measurement": "inhibition", "setting": "[16]", "result": 11, "unit": "%"},
      {"measurement": "inhibition", "setting": "[9]", "result": 87, "unit": "%"},
      {"measurement": "inhibition", "setting": "[17]", "result": 28, "unit": "%"},
      {"measurement": "pIC50", "setting": "[14]", "result": 6.58}
    ]},
    {"smiles": "N[C@H]1CCN(Cc2ccc(Cl)c(C(=O)NCC34CC5CC(CC(C5)C3)C4)c2)C1", "values": [
      {"measurement": "pIC50", "setting": "[18]", "result": 7.07}
    ]},
    {"smiles": "O=C1NC(=O)C(C2CCN(C(=O)c3ccc(Cl)c(C(F)(F)F)c3)CC2)C1Cc1ccc(OS(=O)(=O)c2cccc3cnccc23)cc1", "note": "(stereo not drawn)", "values": [
      {"measurement": "pIC50", "setting": "[18]", "result": 7.27}
    ]},
    {"smiles": "Nc1ccc(-c2ccc3c(NC(=O)CC45CC6CC(CC(C6)C4)C5)cccc3n2)cc1", "values": [
      {"measurement": "Kinetic_solubility", "setting": "[1]", "result": "Soluble"},
      {"measurement": "inhibition at 50 µM", "setting": "[2]", "result": "> 50", "unit": "%"},
      {"measurement": "remaining at 0.5 h, 1 µM", "setting": "[3]", "result": 13.3, "unit": "%"},
      {"measurement": "viability at 10 µM", "setting": "[4]", "result": 98, "unit": "%"},
      {"measurement": "remaining at 0.5 h, 1 µM", "setting": "[5]", "result": 10.6, "unit": "%"},
      {"measurement": "inhibition", "setting": "[6]", "result": 85, "unit": "%"},
      {"measurement": "Activity", "setting": "[7]", "result": "Active"},
      {"measurement": "Kinetic_solubility", "setting": "[8]", "result": "Soluble"},
      {"measurement": "inhibition", "setting": "[9]", "result": 93, "unit": "%"},
      {"measurement": "pIC50", "setting": "[10]", "result": 7.72},
      {"measurement": "Kinetic_solubility", "setting": "[11]", "result": "Soluble"},
      {"measurement": "Activity", "setting": "[12]", "result": "Active"},
      {"measurement": "Papp at 4 h, 50 µM", "setting": "[13]", "result": 24.9, "unit": "×10⁻⁶ cm/s"},
      {"measurement": "pIC50", "setting": "[14]", "result": 8.00},
      {"measurement": "remaining at 0.5 h, 1 µM", "setting": "[15]", "result": 15.5, "unit": "%"}
    ]}
  ]
}
